Results as given in ChEMBL document CHEMBL1201862, “PubChem BioAssay data set” (2004).
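These data come from cells grown in 96-well plates and exposed to compound for 48 hours at five concentrations. GI50: concentration for 50% inhibition of growth.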 The source made the active and inactive calls. Rule as the data show it: active = GI50 up to about 1.1 µM and inactive = higher.

Assays:
Assay in all cases: inhibition of tumour cell growth, NCI panel, 48 h
CCRF-CEM = test system: CCRF-CEM
ACHN = test system: ACHN
UO-31 = test system: UO-31
CAKI-1 = test system: CAKI-1
RPMI-8226 = test system: RPMI-8226
SK-MEL-5 = test system: SK-MEL-5
HCT-116 = test system: HCT-116
SF-268 = test system: SF-268
SK-MEL-2 = test system: SK-MEL-2
HOP-92 = test system: HOP-92
A549 = test system: A549
SK-OV-3 = test system: SK-OV-3
786-0 = test system: 786-0
OVCAR-4 = test system: OVCAR-4
SW-620 = test system: SW-620
SF-539 = test system: SF-539
SK-MEL-28 = test system: SK-MEL-28
HCC 2998 = test system: HCC 2998
COLO 205 = test system: COLO 205

Measured: GI50

CCc1ccc(/N=C\c2cc(OC)c(OC)c(OC)c2)cc1
inactive: CCRF-CEM 40.7 µM | ACHN > 100 µM | UO-31 > 100 µM | CAKI-1 > 100 µM | RPMI-8226 16.6 µM | SK-MEL-5 > 100 µM | HCT-116 > 100 µM | SF-268 > 100 µM | SK-MEL-2 > 100 µM | HOP-92 > 100 µM | A549 > 100 µM | SK-OV-3 > 100 µM | 786-0 > 100 µM | OVCAR-4 > 100 µM | SW-620 10.9 µM | SF-539 > 100 µM | SK-MEL-28 > 100 µM

CCOC(=N)CC(=O)Nc1ccc(Cl)cc1
inactive: CCRF-CEM > 100 µM | HCC 2998 > 100 µM | ACHN > 100 µM | UO-31 > 100 µM | CAKI-1 > 100 µM | SK-MEL-5 > 100 µM | HCT-116 > 100 µM | SF-268 > 100 µM | SK-MEL-2 > 100 µM | COLO 205 > 100 µM | A549 > 100 µM | SK-OV-3 > 100 µM | 786-0 > 100 µM | OVCAR-4 > 100 µM | SW-620 > 100 µM | SF-539 > 100 µM | SK-MEL-28 > 100 µM

CCC1CCc2c(OC)ccc(OCC(=O)O)c2C1=O (stereo unspecified)
inactive: CCRF-CEM > 100 µM | HCC 2998 > 100 µM | ACHN > 100 µM | UO-31 > 100 µM | RPMI-8226 > 100 µM | SK-MEL-5 > 100 µM | SF-268 > 100 µM | SK-MEL-2 > 100 µM | COLO 205 > 100 µM | A549 > 100 µM | SK-OV-3 > 100 µM | 786-0 > 100 µM | OVCAR-4 > 100 µM | SW-620 > 100 µM | SF-539 > 100 µM | SK-MEL-28 > 100 µM

C/C(=N/NC(=O)c1ccccc1O)c1ccc(/C(C)=N\NC(=O)c2ccccc2O)c2nc3cc(C)c(C)cc3nc12
inactive: CCRF-CEM > 100 µM | HCC 2998 > 100 µM | ACHN > 100 µM | UO-31 > 100 µM | SK-MEL-5 > 100 µM | HCT-116 > 100 µM | SF-268 > 100 µM | SK-MEL-2 > 100 µM | COLO 205 > 100 µM | HOP-92 54.7 µM | A549 > 100 µM | SK-OV-3 > 100 µM | 786-0 > 100 µM | OVCAR-4 > 100 µM | SW-620 > 100 µM | SF-539 > 100 µM | SK-MEL-28 > 100 µM

CCOC(=O)Nn1c(C)cc(C(=O)OC)c1C
inactive: CCRF-CEM > 100 µM | HCC 2998 > 100 µM | ACHN > 100 µM | UO-31 > 100 µM | CAKI-1 > 100 µM | RPMI-8226 > 100 µM | SK-MEL-5 > 100 µM | HCT-116 > 100 µM | SF-268 > 100 µM | SK-MEL-2 > 100 µM | COLO 205 > 100 µM | A549 > 100 µM | SK-OV-3 > 100 µM | 786-0 > 100 µM | SW-620 > 100 µM | SF-539 > 100 µM | SK-MEL-28 > 100 µM

COC(=O)c1onc(-c2c(OC)cc(OC)cc2OC)c1C(=O)OC
inactive: CCRF-CEM > 100 µM | HCC 2998 > 100 µM | ACHN > 100 µM | UO-31 > 100 µM | CAKI-1 > 100 µM | RPMI-8226 > 100 µM | SK-MEL-5 > 100 µM | HCT-116 > 100 µM | SF-268 > 100 µM | SK-MEL-2 > 100 µM | COLO 205 > 100 µM | HOP-92 > 100 µM | A549 > 100 µM | SK-OV-3 > 100 µM | 786-0 > 100 µM | OVCAR-4 > 100 µM | SW-620 > 100 µM | SK-MEL-28 > 100 µM

C[N+]1(C)C/C(=C\c2ccncc2)C(=O)/C(=C/c2ccncc2)C1
inactive: CCRF-CEM 37.1 µM | HCC 2998 > 100 µM | ACHN > 100 µM | UO-31 > 100 µM | CAKI-1 > 100 µM | RPMI-8226 63.8 µM | SK-MEL-5 > 100 µM | HCT-116 38.5 µM | SF-268 25.2 µM | COLO 205 > 100 µM | HOP-92 > 100 µM | A549 > 100 µM | SK-OV-3 > 100 µM | 786-0 > 100 µM | OVCAR-4 > 100 µM | SW-620 52.7 µM | SF-539 > 100 µM | SK-MEL-28 > 100 µM

Cc1cc2nc3c(C#N)c4c(c(Cl)n3c2cc1C)CCC4
inactive: ACHN 24.6 µM | CAKI-1 18.5 µM | RPMI-8226 16 µM | SK-MEL-5 21.9 µM | HCT-116 16.1 µM | SF-268 23.9 µM | COLO 205 65.8 µM | HOP-92 31.8 µM | SK-OV-3 > 100 µM | 786-0 16 µM | OVCAR-4 43 µM | SW-620 19.6 µM | SF-539 25.3 µM | SK-MEL-28 29.2 µM

CC(=O)Nc1ccc(/C=c2\sc3nnc(-c4cccnc4)n3c2=O)cc1
inactive: CCRF-CEM 17.4 µM | HCC 2998 20.7 µM | ACHN 14 µM | UO-31 12 µM | CAKI-1 17.9 µM | SK-MEL-5 17.4 µM | HCT-116 15.6 µM | SF-268 25.2 µM | SK-MEL-2 20.9 µM | COLO 205 15.4 µM | HOP-92 12 µM | A549 42.1 µM | SK-OV-3 24 µM | 786-0 16.6 µM | OVCAR-4 14.6 µM | SW-620 17.8 µM | SF-539 18.7 µM | SK-MEL-28 17 µM

CSC1=C(C(=O)N(COCC[Si](C)(C)C)c2ccccc2Br)CCC(C(C)(C)C)C1 (stereo unspecified)
inactive: CCRF-CEM 22.7 µM | HCC 2998 13.4 µM | ACHN 16.4 µM | UO-31 12.6 µM | CAKI-1 1.83 µM | RPMI-8226 10.6 µM | SK-MEL-5 12.8 µM | HCT-116 5.32 µM | SK-MEL-2 14 µM | COLO 205 12.4 µM | HOP-92 12.9 µM | A549 17 µM | SK-OV-3 31.9 µM | 786-0 13.3 µM | OVCAR-4 10.5 µM | SW-620 13.8 µM | SK-MEL-28 25.8 µM

Cc1noc(C)c1CCCOC1COc2ccccc2OCCOCCOc2ccccc2OC1
inactive: HCC 2998 > 100 µM | ACHN > 100 µM | UO-31 > 100 µM | CAKI-1 > 100 µM | SK-MEL-5 > 100 µM | SF-268 > 100 µM | SK-MEL-2 > 100 µM | COLO 205 > 100 µM | A549 > 100 µM | SK-OV-3 > 100 µM | 786-0 > 100 µM | OVCAR-4 > 100 µM | SW-620 > 100 µM | SF-539 > 100 µM | SK-MEL-28 > 100 µM

COC[C@H](C)/N=C/N1CCc2ccccc2C1(Cc1ccccc1)Cc1ccccc1
inactive: CCRF-CEM 12.9 µM | ACHN 21.2 µM | UO-31 12.9 µM | CAKI-1 16.3 µM | RPMI-8226 15.8 µM | SK-MEL-5 47.9 µM | HCT-116 10.8 µM | SF-268 21.9 µM | SK-MEL-2 10.6 µM | COLO 205 13.5 µM | HOP-92 15.6 µM | A549 30.4 µM | SK-OV-3 16.9 µM | 786-0 16.5 µM | OVCAR-4 12.8 µM | SW-620 22.6 µM | SF-539 18.2 µM | SK-MEL-28 11.1 µM

Cc1cc2cc(Cl)ccc2nc1C(=O)c1ccccc1
inactive: HCC 2998 > 100 µM | ACHN > 100 µM | UO-31 > 100 µM | CAKI-1 > 100 µM | RPMI-8226 > 100 µM | SK-MEL-5 > 100 µM | HCT-116 > 100 µM | SF-268 > 100 µM | SK-MEL-2 > 100 µM | COLO 205 > 100 µM | A549 > 100 µM | 786-0 > 100 µM | OVCAR-4 > 100 µM | SW-620 > 100 µM | SF-539 > 100 µM | SK-MEL-28 > 100 µM

COc1ccc(C2=Nc3ccccc3NC(=O)C2)cc1
inactive: CCRF-CEM 41.9 µM | HCC 2998 > 100 µM | ACHN 41.2 µM | UO-31 34.4 µM | CAKI-1 > 100 µM | SK-MEL-5 > 100 µM | HCT-116 20.5 µM | SF-268 23.4 µM | SK-MEL-2 51.5 µM | COLO 205 38.3 µM | HOP-92 21 µM | A549 77.6 µM | SK-OV-3 21.5 µM | 786-0 33.3 µM | OVCAR-4 > 100 µM | SW-620 16.7 µM | SF-539 29.4 µM | SK-MEL-28 > 100 µM

CCOC(=O)CC1=N/C(=N/c2cc(Cl)ccc2Cl)SC1
inactive: CCRF-CEM 76.9 µM | HCC 2998 > 100 µM | ACHN > 100 µM | UO-31 > 100 µM | CAKI-1 > 100 µM | SK-MEL-5 > 100 µM | HCT-116 97.9 µM | SF-268 > 100 µM | SK-MEL-2 > 100 µM | COLO 205 > 100 µM | HOP-92 > 100 µM | A549 > 100 µM | SK-OV-3 > 100 µM | 786-0 > 100 µM | OVCAR-4 > 100 µM | SW-620 > 100 µM | SF-539 > 100 µM | SK-MEL-28 > 100 µM

COc1cc(C2C(Cl)C(=O)N2NC(=O)Cc2ccccc2)cc(Br)c1O (stereo unspecified)
inactive: CCRF-CEM 46.1 µM | HCC 2998 > 100 µM | ACHN > 100 µM | UO-31 64.9 µM | CAKI-1 > 100 µM | RPMI-8226 42.5 µM | SK-MEL-5 69.8 µM | HCT-116 71.4 µM | SF-268 61 µM | SK-MEL-2 > 100 µM | COLO 205 > 100 µM | A549 > 100 µM | SK-OV-3 > 100 µM | 786-0 > 100 µM | OVCAR-4 63.5 µM | SW-620 > 100 µM | SK-MEL-28 > 100 µM
